Measured values: patent publication US5039806A, “Novel pharmacologically active compound pyridyl methylsulfinyl benzimidazole” (AB Hassle, priority 1983, dated 1991)
pIC50: −log10 of the molar value.

Test system: gastric acid secretion in conscious dog
Test: Inhibiting effect in vivo on gastric acid secretion in conscious dog (gastric fistula, histamine-stimulated)
Conditions: intraduodenal (I.D.) dose 8 μmol/kg, free base in 0.5% Methocel
Protocol: II. Inhibiting effect in vivo on gastric acid secretion in conscious dog
Chronic gastric fistula dogs were used. These dogs have been surgically provided with a gastric cannula in the stomach and a duodenal fistula used for direct intraduodenal administration of test compounds. Following a 4 weeks' recovery period after surgery, tests were performed once a week on each dog. Food and water were withdrawn 18 hours before each test.
Gastric acid secretion was induced by continuous infusion of histamine at individual doses (100-300 nmol/kg,h), resulting in submaximal secretion of gastric acid. At least 2 hours after onset of stimulation, when the gastric acid secretion had reached a steady level, the test compounds in the form of free base suspended in 0.5% Methocel® (90 HG, 15.000, Dow Chem. Corp.), were given intraduodenally at doses from 1 to 8 μmol/kg. The gastric juice was collected by free flow from the gastric cannula in consecutive 30 minutes samples for 3 hours. The samples were titrated to pH 7.0 with 0.1 M NaOH using a Radiometer automatic titrator and the acid output was calculated.
The percent inhibition of acid secretion was calculated by comparing in each dog the acid output in the tests to the acid output in control tests when only the vehicle was given.

In order of rising “% INHIB (peak inhibitory effect on acid secretion)” value:
1. COc1c(C)cnc(CSc2nc3cc(SC)ccc3[nH]2)c1C [Example 109]  60%
2. COc1c(C)cnc(CSc2nc3cc4ccccc4cc3[nH]2)c1C [Example 84]  85%

Test system: isolated rabbit gastric glands
Test: Inhibiting effect in vitro on acid secretion in isolated rabbit gastric glands (14C-aminopyrine accumulation)
Format: cell-based
Conditions: Oryctolagus cuniculus, 1 h, logarithm of concentration (in M) giving 50% inhibition of aminopyrine accumulation; 5×10^-5 M histamine, 60 min, free base
Protocol: I. Inhibiting effect in vitro on acid secretion in isolated rabbit gastric glands
Isolated rabbit gastric glands were prepared as described by Berglindh et al., Acta physiol. scand. 1976. 96. 150-159. This method involves vascular perfusion of the rabbit stomach via the gastric arteries, scraping and scissor mincing of the separated gastric mucosa and collagenase (0.1%, Type I, Sigma Chemicals, St. Louis, MO. USA) digestion at 37° C. for 60-90 min. The glands are then harvested and filtered through nylon cloth to remove coarse fragments. The glands are thereafter incubated at 37° C. in a medium containing NaCl 132.4 mM, KCl 5.4 mM, […], NaH2 PO4 1.0 mM, MgSO4 1.2 mM, CaCl2 1.0 mM, glucose 10 mM, and 1 mg/ml rabbit albumine, pH 7.4.
The acid secretion in the isolated gland preparation was recorded by measuring the uptake of ^14 C-labelled aminopyrine into the glands as described by Berglindh et al., Acta physiol. scand. 1976. 97. 401-414. Accumulation of aminopyrine in the glands indicates gastric acid secretion within the glands. The standard medium contained 10^-6 M ^14 C-aminopyrine (Amersham, Great Britain). After the incubation period, the glands were centrifuged, the supernatant was removed and the glands dried, weighed and dissolved in Soluene -350 (Packard, IU. USA). Samples of the supernatant and glands were separately counted in a scintillation counter. The accumulation of ^14 C-labelled aminopyrine in the glands was calculated as detailed by Berglindh et al., Acta physiol. scand. 1976. 97. 403.
Glands were incubated for 60 min. in the presence of 5×10^-5 M histamine and the test compound to be studied. The free base of the test compound was dissolved in methanol. The final concentration of methanol was 1% in the incubation medium, having no influence on the aminopyrine accumulation ratio.

In order of falling pIC50:
1. COc1c(C)cnc(C[S+]([O-])c2nc3cc(-c4ccccc4)ccc3[nH]2)c1C (centres unmarked) [Example 124]  7.00
2. COc1c(C)cc2[nH]c([S+]([O-])Cc3nccc(C)c3C)nc2c1C (centres unmarked) [Example 1, 4,6-dimethyl-5-methoxy-2-[[(3,4-dimethyl-2-pyridinyl)methyl]sulfinyl]-1H-benzimidazole]  6.70
3. C=CCOc1c(C)cnc(C[S+]([O-])c2nc3cc(CC)ccc3[nH]2)c1C (centres unmarked) [Example 94]  6.60
4. COc1c(C)cnc(C[S+]([O-])c2nc3c(C)c(OC)c(C)cc3[nH]2)c1C (centres unmarked) [Example 8, 4,6-dimethyl-5-methoxy-2-[[(4-methoxy-3,5-dimethyl-2-pyridinyl)methyl]sulfinyl]-1H-benzimidazole]  6.50
5. COc1c(C)cnc(C[S+]([O-])c2nc3c(C)c(C)c(C)c(C)c3[nH]2)c1C (centres unmarked) [Example 12]  6.50
6. COc1c(C)cnc(C[S+]([O-])c2nc3c(C)c(C)c(C)cc3[nH]2)c1C (centres unmarked) [Example 16]  6.50
7. CCc1c(C)cc2[nH]c([S+]([O-])Cc3ncc(C)c(OC)c3C)nc2c1C (centres unmarked) [Example 68]  6.50
8. COc1c(C)cnc(C[S+]([O-])c2nc3cc(Oc4ccccc4)ccc3[nH]2)c1C (centres unmarked) [Example 118]  6.40
9. Cc1cnc(C[S+]([O-])c2nc3c(C)c(C)c(C)cc3[nH]2)cc1C (centres unmarked) [Example 147]  6.40
10. COc1c(C)cnc(C[S+]([O-])c2nc3c4c(ccc3[nH]2)CCCC4)c1C (centres unmarked) [Example 87]  6.30
11. COc1c(C)cnc(C[S+]([O-])c2nc3cc(OCCc4ccccc4)ccc3[nH]2)c1C (centres unmarked) [Example 120]  6.30
12. Cc1ccnc(C[S+]([O-])c2nc3c(C)c(C)cc(C)c3[nH]2)c1C (centres unmarked) [Example 151]  6.30
13. Cc1cnc(C[S+]([O-])c2nc3cc(C(F)(F)F)ccc3[nH]2)c(C)c1OCC1CCCO1 (centres unmarked) [Example 159]  6.30
14. COc1c(C)cnc(C[S+]([O-])c2nc3c(C)c(C(C)=O)c(C)cc3[nH]2)c1C (centres unmarked) [Example 62]  6.20
15. COc1c(C)cnc(C[S+]([O-])c2nc3c(C)c(OC)c(C)c(C)c3[nH]2)c1C (centres unmarked) [Example 74]  6.20
16. Cc1cnc(C[S+]([O-])c2nc3cc(C(C)C)ccc3[nH]2)c(C)c1OCC1CCCO1 (centres unmarked) [Example 111]  6.20
17. Cc1ccnc(C[S+]([O-])c2nc3c(C)c(C)c(C)cc3[nH]2)c1C (centres unmarked) [Example 145]  6.20
18. Cc1cnc(C[S+]([O-])c2nc3c(C)c(C)c(C)cc3[nH]2)c(C)c1 (centres unmarked) [Example 149]  6.20
19. C=CCOc1c(C)cnc(C[S+]([O-])c2nc3c(C)c(C)c(C)c(C)c3[nH]2)c1C (centres unmarked) [Example 10]  6.10
20. C=CCOc1c(C)cnc(C[S+]([O-])c2nc3c(C)c(C)c(C)cc3[nH]2)c1C (centres unmarked) [Example 14]  6.10
21. COc1c(C)cnc(C[S+]([O-])c2nc3cc(C4CCCCC4)ccc3[nH]2)c1C (centres unmarked) [Example 45]  6.10
22. COc1c(C)cnc(C[S+]([O-])c2nc3cc(CO)c(C)cc3[nH]2)c1C (centres unmarked) [Example 51]  6.10
23. COc1ccc2[nH]c([S+]([O-])Cc3ncc(C)c(OCCC(C)C)c3C)nc2c1 (centres unmarked) [Example 96]  6.10
24. CCc1cnc(C[S+]([O-])c2nc3cc(C(=O)OC)c(C)cc3[nH]2)cc1OC (centres unmarked) [Example 143]  6.10
25. COc1c(C)cnc(C[S+]([O-])c2nc3c(C)c(C)cc(C)c3[nH]2)c1C (centres unmarked) [Example 20]  6.00
26. C=CCOc1c(C)cnc(C[S+]([O-])c2nc3c(C)c(C)ccc3[nH]2)c1C (centres unmarked) [Example 22]  6.00
27. C=CCOc1c(C)cnc(C[S+]([O-])c2nc3cc(C)c(C)cc3[nH]2)c1C (centres unmarked) [Example 24]  6.00
28. CCC(=O)c1c(C)cc2[nH]c([S+]([O-])Cc3ncc(C)c(OC)c3C)nc2c1C (centres unmarked) [Example 66]  6.00
29. CCc1cnc(C[S+]([O-])c2nc3cc(C)c(C)cc3[nH]2)cc1OC (centres unmarked) [Example 77]  6.00
30. COc1c(C)cnc(C[S+]([O-])c2nc3cc4c(cc3[nH]2)OC2(CCCCC2)O4)c1C (centres unmarked) [Example 106]  6.00
31. C=CCOc1c(C)cnc(C[S+]([O-])c2nc3cc(Br)ccc3[nH]2)c1C (centres unmarked) [Example 129]  6.00
32. Cc1cnc(C[S+]([O-])c2nc3cc4c(cc3[nH]2)OCO4)c(C)c1C (centres unmarked) [Example 142]  6.00
33. CCCCCCCOc1c(C)cc2[nH]c([S+]([O-])Cc3ncc(C)c(OC)c3C)nc2c1C (centres unmarked) [Example 2, 4,6-dimethyl-5-heptyloxy-2-[[(4-methoxy-3,5-dimethyl-2-pyridinyl)methyl]sulfinyl]-1H-benzimidazole]  5.90
34. C=CCOc1c(C)cnc(C[S+]([O-])c2nc3c(C)c(C)cc(C)c3[nH]2)c1C (centres unmarked) [Example 18]  5.90
35. C=CCOc1c(C)cnc(C[S+]([O-])c2nc3c(C)ccc(C)c3[nH]2)c1C (centres unmarked) [Example 26]  5.90
36. C=CCOc1c(C)cnc(C[S+]([O-])c2nc3c(C)cccc3[nH]2)c1C (centres unmarked) [Example 28]  5.90
37. C=CCOc1c(C)cnc(C[S+]([O-])c2nc3cc(C)ccc3[nH]2)c1C (centres unmarked) [Example 30]  5.90
38. C=CCOc1c(C)cnc(C[S+]([O-])c2nc3c(C)cc(C)cc3[nH]2)c1C (centres unmarked) [Example 41]  5.90
39. COCCOc1c(C)cc2[nH]c([S+]([O-])Cc3ncc(C)c(OC)c3C)nc2c1C (centres unmarked) [Example 58]  5.90
40. CCc1c(C)cc2[nH]c([S+]([O-])Cc3nccc(OC)c3C)nc2c1C (centres unmarked) [Example 70]  5.90
41. C=CCOc1c(C)cnc(C[S+]([O-])c2nc3cc(C(C)(C)C)ccc3[nH]2)c1C (centres unmarked) [Example 102]  5.90
42. CC(=O)c1c(C)cc2[nH]c([S+]([O-])Cc3ncc(C)cc3C)nc2c1C (centres unmarked) [Example 64]  5.80
43. COc1c(C)cnc(C[S+]([O-])c2nc3cc(OCCCOc4ccccc4)ccc3[nH]2)c1C (centres unmarked) [Example 91]  5.80
44. C=CCOc1c(C)cnc(C[S+]([O-])c2nc3cc(CCC(C)=O)ccc3[nH]2)c1C (centres unmarked) [Example 113]  5.80
45. COCCc1ccc2[nH]c([S+]([O-])Cc3ncc(C)c(OC)c3C)nc2c1 (centres unmarked) [Example 104]  5.70
46. C=CCOc1c(C)cnc(C[S+]([O-])c2nc3cc(OC)ccc3[nH]2)c1C (centres unmarked) [Example 32]  5.60
47. CCc1cnc(C[S+]([O-])c2nc3cc(OC)ccc3[nH]2)cc1OC (centres unmarked) [Example 35]  5.60
48. COc1c(C)cnc(C[S+]([O-])c2nc3c(cc4c5c(cccc53)CC4)[nH]2)c1C (centres unmarked) [Example 98]  5.60
49. COCCOc1c(C)cc2[nH]c([S+]([O-])Cc3cc(C)c(C)cn3)nc2c1C (centres unmarked) [Example 60]  5.40
50. C=CCOc1c(C)cnc(C[S+]([O-])c2nc3cc(C(=O)OC)c(C)cc3[nH]2)c1C (centres unmarked) [Example 55]  5.30
51. COc1c(C)cnc(C[S+]([O-])c2nc3c(ccc4ccccc43)[nH]2)c1C (centres unmarked) [Example 83]  5.30
52. CCOc1c(C)cnc(C[S+]([O-])c2nc3c(C)c(C#N)c(C)cc3[nH]2)c1C (centres unmarked) [Example 153]  5.20
53. C#CCOc1c(C)cnc(C[S+]([O-])c2nc3cc(OC)ccc3[nH]2)c1C (centres unmarked) [Example 34]  5.00
54. COc1ccc2[nH]c([S+]([O-])Cc3cc4c(cn3)CCCC4)nc2c1 (centres unmarked) [Example 37]  5.00
55. CCc1cc2[nH]c([S+]([O-])Cc3ncc(C)c(OC)c3C)nc2c(CC)c1C#N (centres unmarked) [Example 72]  5.00
56. COc1c(C)cnc(C[S+]([O-])c2nc3cc(C(=O)N4CCCCC4C)ccc3[nH]2)c1C (centres unmarked) [Example 79]  5.00
57. COc1c(C)cnc(C[S+]([O-])c2nc3cc(OCC#N)ccc3[nH]2)c1C (centres unmarked) [Example 43]  4.40
